Patent US20250325493A1, “COMPOSITIONS AND METHODS FOR MAKING AND USING POLYMER-COATED NANOCAPSULES FOR TARGETED PHARMACEUTICAL AGENT DELIVERY” (The Regents of the University of Colorado, a body Corporate, priority 2022, published 2025)

Key:
sBC clusters = assay: Selective delivery of PTM toxin to sBC clusters, live/dead cell quantification; format: cell-based, human; conditions: 24 hours, vs untreated control
Protocol: Blank or pentamidine (PTM) (B-cell toxin) loaded NCs were left uncoated or coated with either an ENTPD3 antibody or BSA for up to about 168 hours. Untreated and 1 μM free PTM were utilized as additional controls. […] Although benzalkonium chloride (BKC) can be used for biological applications, it can be toxic to cells at high concentrations.
In further exemplary methods, the number of GFP positive and GFP negative dead cells were quantified as GFP correlates to insulin positive cells. For the dead sBC clusters, 76% at 24 hours (FIG. 20G) and 69% at 72 hours were GFP positive (FIG. 20H).

[1] = NC stability after freeze drying with cryoprotectant; format: physicochemical
Protocol: In another exemplary method, NC stability after freeze drying was tested as a potential method for preserving NCs for long term storage and use including analyzing NC integrity and cargo retention for extended periods of time. In this example, mannitol (a sugar alcohol example, e.g., sorbitol and the like) was chosen as the cryoprotectant. W/O NCs were utilized for this experiment. Mannitol concentrations of 2.5% w/v, 5.0 w/v, and 10.0 w/v were tested to determine the optimal concentration (FIG. 13A). […] SEM images were taken before (FIG. 13B) and after (FIG. 13C) freeze drying to confirm DLS measurements. It was observed that the NC yield decreased after reconstitution which may be attributed to the mannitol crystallizing and imposing mechanical forces either breaking the NCs or forming aggregates. It is noted that mannitol can be removed, if needed or desired, from the NC formulations by centrifugation and washing in either water or PBS.

SMILES | percentage of dead cells (sBC clusters) | ability to replace mannitol as cryoprotectant in freeze drying of NCs [1]
N=C(N)c1ccc(OCCCCCOc2ccc(C(=N)N)cc2)cc1 [free PTM, pentamidine] | killed the majority of sBCs | 
OC[C@H]1O[C@H](O[C@]2(CCl)O[C@H](CCl)[C@@H](O)[C@@H]2O)[C@H](O)[C@@H](O)[C@H]1Cl [sucralose] |  | failed to stabilize the NCs
OC[C@H]1O[C@@](CO)(O[C@H]2O[C@H](CO)[C@@H](O)[C@H](O)[C@H]2O)[C@@H](O)[C@@H]1O [sucrose] |  | failed to stabilize the NCs
